In the supplement of paper PMC10307832:

Assays:
Test in all cases: relative viability (nuclei count vs DMSO), 5 days (fraction); higher = more cells survive
[1] = compound: Nc1nc2[nH]cc(CCc3ccc(C(=O)N[C@@H](CCC(=O)O)C(=O)O)cc3)c2c(=O)[nH]1 [Pemetrexed] + N=C(N)NC(=N)NCCc1ccccc1 [Phenformin] (partner 250 µM)
Summary of the method: (§1)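 Nuclei were stained with Hoechst during a one-step fixation (final 0.05% Triton X-100, 1% formaldehyde, 1 ug/ml Hoechst) carried out 5 days after dosing, then counted on 4× images. The cells, lung cancer lines in 1536-well plates, had been dosed by pin tool the day after seeding with one drug alone or a fixed anchor-drug dose plus five library-drug doses (not always all listed) in √10 steps. Relative viability is the nuclei count in treated wells divided by that in vehicle wells, and each value is the median of duplicate plates.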

[2] = compound: CC[C@H](Nc1ncnc2[nH]cnc12)c1nc2cccc(F)c2c(=O)n1-c1ccccc1 [Idelalisib] + O=C(CCCCCCC(=O)Nc1ccccc1)NO [Vorinostat] (partner 1 µM)
Summary of the method: as §1

[3] = compound: Nc1nc2[nH]cc(CCc3ccc(C(=O)N[C@@H](CCC(=O)O)C(=O)O)cc3)c2c(=O)[nH]1 [Pemetrexed] + COc1cc2c(Oc3ccc(NC(=O)C4(C(=O)Nc5ccc(F)cc5)CC4)cc3F)ccnc2cc1OCCCN1CCOCC1 [Foretinib] (partner 0.25 µM)
Summary of the method: as §1

[4] = compound: CC[C@H](Nc1ncnc2[nH]cnc12)c1nc2cccc(F)c2c(=O)n1-c1ccccc1 [Idelalisib] + CC1(C)CCC(c2ccc(Cl)cc2)=C(CN2CCN(c3ccc(C(=O)NS(=O)(=O)c4ccc(N[C@H](CCN5CCOCC5)CSc5ccccc5)c(S(=O)(=O)C(F)(F)F)c4)cc3)CC2)C1 [Navitoclax] (partner 0.5 µM)
Summary of the method: as §1

Cell Line | relative viability ([1]; first compound 0.002 µM) | relative viability ([1]; first compound 0.006325 µM) | relative viability ([1]; first compound 0.02 µM) | relative viability ([1]; first compound 0.06325 µM) | relative viability ([1]; first compound 0.2 µM) | relative viability ([2]; first compound 0.04 µM) | relative viability ([2]; first compound 0.1265 µM) | relative viability ([2]; first compound 1.265 µM) | relative viability ([2]; first compound 4 µM) | relative viability ([3]; first compound 0.002 µM) | relative viability ([3]; first compound 0.006325 µM) | relative viability ([3]; first compound 0.02 µM) | relative viability ([3]; first compound 0.06325 µM) | relative viability ([3]; first compound 0.2 µM) | relative viability ([4]; first compound 0.04 µM) | relative viability ([4]; first compound 0.1265 µM) | relative viability ([4]; first compound 0.4 µM) | relative viability ([4]; first compound 1.265 µM) | relative viability ([4]; first compound 4 µM) | relative viability ([2]; first compound 0.4 µM)
NCI-H1793 | 0.436 | 0.361 | 0.42 | 0.349 | 0.405 | 0.764 | 0.699 | 0.75 | 0.582 | 0.844 | 0.575 | 0.733 | 0.465 | 0.749 | 0.379 | 0.462 | 0.259 | 0.346 | 0.22 | 
NCI-H1651 | 0.299 | 0.354 | 0.377 | 0.285 | 0.368 | 0.577 | 0.416 | 0.617 | 0.593 | 0.673 | 0.772 | 0.826 | 0.754 | 0.737 | 0.73 | 1.09 | 1.01 | 1.07 | 0.792 | 0.552
HCC-78 | 0.446 | 0.694 | 0.599 | 0.361 | 0.255 | 0.462 | 0.448 | 0.468 | 0.332 | 0.447 | 0.541 | 0.54 | 0.319 | 0.298 | 0.762 | 0.648 | 0.682 | 0.797 | 0.505 | 0.393
NCI-H23 | 0.747 | 0.758 | 0.809 | 0.804 | 0.828 | 0.674 | 0.657 | 0.317 | 0.62 | 1.03 | 0.943 | 1.22 | 0.618 | 0.989 | 0.843 | 0.872 | 0.718 | 0.765 | 0.606 | 0.395
LOU-NH91 | 0.691 | 0.733 | 0.739 | 0.572 | 0.404 | 0.998 | 0.899 | 0.726 | 0.91 | 0.941 | 0.915 | 0.992 | 0.709 | 0.434 | 0.741 | 0.699 | 0.667 | 0.463 | 0.617 | 0.794
LXF-289 | 0.497 | 0.504 | 0.525 | 0.52 | 0.479 | 0.878 | 0.759 | 0.783 | 0.764 | 0.925 | 0.994 | 1.03 | 0.991 | 0.959 | 0.961 | 0.948 | 0.912 | 1.02 | 0.97 | 0.781
NCI-H460 | 0.432 | 0.452 | 0.56 | 0.247 | 0.0552 | 0.526 | 0.783 | 0.525 | 0.686 | 0.989 | 0.942 | 1.1 | 0.64 | 0.0776 | 1.12 | 1.07 | 1.09 | 1.24 | 1.14 | 0.692
EMC-BAC-2 | 0.481 | 0.523 | 0.615 | 0.58 | 0.423 | 0.639 | 0.42 | 0.496 | 0.633 | 1.02 | 0.923 | 1.01 | 1 | 0.902 | 1.13 | 1.2 | 1.12 | 1.21 | 1.06 | 0.419
CAL-12T | 0.502 | 0.477 | 0.612 | 0.58 | 0.608 | 0.831 | 0.689 | 0.704 | 0.648 | 1.04 | 1.07 | 1.24 | 1.17 | 1.04 | 1.24 | 1.32 | 1.14 | 1.29 | 1.06 | 0.65
ChaGo-K-1 | 0.497 | 0.495 | 0.507 | 0.332 | 0.217 | 0.832 | 0.702 | 0.82 | 0.732 | 0.991 | 0.919 | 0.948 | 0.529 | 0.301 | 1.03 | 1.01 | 1.12 | 1.09 | 1.14 | 0.695
COR-L 105 | 0.405 | 0.45 | 0.49 | 0.524 | 0.449 | 0.859 | 0.876 | 0.724 | 1.11 | 0.97 | 1.16 | 1.17 | 1.15 | 1.24 | 0.794 | 1.04 | 0.805 | 0.893 | 0.52 | 0.778
NCI-H1944 |  | 0.229 | 0.207 | 0.189 | 0.189 | 0.68 | 0.526 | 0.5 | 0.48 |  | 0.83 | 0.922 | 0.831 | 0.837 | 1.03 | 1.02 | 1.07 | 0.923 | 0.841 | 0.529
NCI-H2009 | 0.466 | 0.494 | 0.539 | 0.47 | 0.477 | 0.751 | 0.751 | 0.688 | 0.72 | 1.2 | 1.28 | 1.29 | 1.2 | 1.11 | 1.11 | 1.17 | 1.19 | 1.22 | 1.18 | 0.663
